Measurements reported in patent US8278301B2, “2-alkylbenzoxazole carboxamides as 5HT3 modulators” (Albany Molecular Research, Inc., priority 2006, dated 2012).
Counter-ions that a name gives are not always drawn. Like-named read-outs stand apart in the source and are kept apart here.

What was measured:
mouse 5-HT3 receptor = molecular target: T1, mouse 5-HT3 receptor (Mus musculus, UniProt P23979); experiment: Compound affinity for the mouse 5-HT3 receptor (Assay C), [3H]-GR65630 radioligand binding, Novoscreen; settings: Assay C; single concentration 100 nM, in duplicate; [3H]-GR65630; read-out: Mouse % Inhibition @ 100 nM
T1 construct: host or cells: mouse neuroblastoma cells (N1E-155 as printed)
T1 sequence (P23979 24-489): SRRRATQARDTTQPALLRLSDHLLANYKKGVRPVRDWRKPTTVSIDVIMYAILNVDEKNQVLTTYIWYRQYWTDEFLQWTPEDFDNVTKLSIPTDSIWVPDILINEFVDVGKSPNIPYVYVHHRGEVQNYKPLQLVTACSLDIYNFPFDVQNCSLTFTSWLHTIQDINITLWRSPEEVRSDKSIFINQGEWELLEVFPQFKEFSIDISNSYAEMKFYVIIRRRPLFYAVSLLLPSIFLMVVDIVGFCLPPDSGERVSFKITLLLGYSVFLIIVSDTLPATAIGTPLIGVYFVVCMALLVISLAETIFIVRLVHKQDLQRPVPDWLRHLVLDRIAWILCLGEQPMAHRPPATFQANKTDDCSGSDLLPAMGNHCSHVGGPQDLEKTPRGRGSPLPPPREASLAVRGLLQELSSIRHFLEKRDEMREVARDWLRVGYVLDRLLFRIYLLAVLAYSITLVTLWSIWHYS
Description: Compound Affinity for the Mouse 5-HT3Receptor (Assay C)
Compounds were tested by Novoscreen Biosciences Corporation, 7170 Standard Drive, Hanover, Md. in a radioligand binding assay using the mouse 5-HT3 receptor derived from mouse neuroblastoma cells and [^3H]-GR65630 (ligand). The non-specific binding determinant was MDL 72222. Compounds were tested at a single concentration of 100 nM in duplicate. Percent inhibition is reported. In order to evaluate the relative affinity of the various compounds for the 5-HT3 receptor, N1E-155 cell lines were developed to express the target protein. For binding, these cells were homogenized, centrifuged and washed with buffer (20 mM HEPES, 150 mM NaCl, pH 7.4) then suspended in 0.5 mL of buffer and [^3H]-GR65630 added at a concentration of 3.5×10^−10 M. An initial single concentration of 10^−7 M of the test compound was then added. Incubation was carried out at room temperature for 60 minutes at 25° C. then was terminated by rapid removal of the incubation medium. Radioactivity was assessed using liquid scintillation spectrophotometry after exposure to scintillation cocktail for at least three hours. […] Ki values were then calculated from the Cheng-Prusoff equation. In all of the above binding studies the non-specific determinant was MDL-72222 (1.0 μM).
(§1) In the table below, the assay in which the data were obtained is shown (as A, B. C, or D) along with the data.

human 5-HT3 receptor = molecular target: T2, human 5-HT3 receptor (Homo sapiens, UniProt P46098); experiment: Compound affinity for the human 5-HT3 receptor (Assay D), [3H]BRL 43694 radioligand binding, Cerep; design: host or cells: CHO cells
T2 sequence (P46098 24-478): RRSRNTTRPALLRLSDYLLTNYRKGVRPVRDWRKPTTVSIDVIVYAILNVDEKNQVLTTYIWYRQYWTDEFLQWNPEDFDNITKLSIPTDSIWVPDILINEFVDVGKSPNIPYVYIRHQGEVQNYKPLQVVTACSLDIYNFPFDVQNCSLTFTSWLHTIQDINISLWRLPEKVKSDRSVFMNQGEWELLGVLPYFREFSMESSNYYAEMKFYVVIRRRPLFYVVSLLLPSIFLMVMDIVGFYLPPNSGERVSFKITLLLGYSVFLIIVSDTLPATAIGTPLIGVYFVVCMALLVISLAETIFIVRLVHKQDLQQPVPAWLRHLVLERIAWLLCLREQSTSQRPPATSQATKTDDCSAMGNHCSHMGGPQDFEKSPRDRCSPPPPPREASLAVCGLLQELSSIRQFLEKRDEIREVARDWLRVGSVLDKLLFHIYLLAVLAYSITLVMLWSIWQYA
Description: Compound Affinity for the Human 5-HT3Receptor (Assay D)
Compounds were tested by Cerep, Le Bois l'Evêque—B.P. 1-86600 Celle, L'Evescault, France in a radioligand binding assay using the human recombinant 5-HT3 receptor (CHO cells, Hope, A. G., Peters, J. A., Brown, A. M., Lambert, J. J. and Blackburn, T. P. Brit. J. Pharmacol., 1996, 118: 1237-1245) and [^3H]BRL 43694 (ligand) with a […] at 22° C. For the above studies, the non-specific binding determinant was MDL 72222 (10 μM). The IC50 values (concentration causing a half-maximal inhibition of control specific binding) and Hill coefficients were determined by non-linear regression analysis of the competition curves using Hill equation curve fitting. The inhibition constants (Ki) were calculated from the Cheng Prusoff equation (Ki=IC50/(1+(L/KD)), where L=concentration of radioligand in the assay, and KD=affinity of the radioligand for the receptor).
as §1

[1] = Assay D, recombinant receptor in CHO cells, [3H]BRL 43694, Cheng-Prusoff, read-out: Human 5HT3 Ki

Row | Compound | inhibition at 0.1 µM (mouse 5-HT3 receptor) [%] | Ki (human 5-HT3 receptor) [nM] | Ki (human 5-HT3 receptor; [1]) [nM]
1 | CN1[C@@H]2CCC[C@H]1C[C@@H](NC(=O)c1cccc3oc(C(C)(C)C)nc13)C2 [Example 3, Endo-N-(9-Methyl-9-azabicyclo[3.3.1]non-3-yl)-2-tert-butylbenzoxazole-4-carboxamide] | 104 | 4.7 | 
2 | CC(C)(C)c1nc2c(C(=O)N[C@@H]3CN4CCC3CC4)cccc2o1 [Example 4, (S)—N-(1-Azabicyclo[2.2.2]oct-3-yl)-2-tert-butylbenzoxazole-4-carboxamide] | 94.3 | 30 | 
3 | CN1[C@@H]2CCC[C@H]1C[C@@H](NC(=O)c1cccc3oc(C4(C)CC4)nc13)C2 [Example 7, Endo-N-(9-Methyl-9-azabicyclo[3.3.1]non-3-yl)-2-(1-methylcyclopropyl)benzoxazole-4-carboxamide Hydrochloride] | 96.7 | 3.3 | 
4 | CC1(c2nc3c(C(=O)N[C@@H]4CN5CCC4CC5)cccc3o2)CC1 [Example 8, (S)—N-(1-Azabicyclo[2.2.2]oct-3-yl)-2-(1-methylcyclopropyl)benzoxazole-4-carboxamide Hydrochloride] | 97.6 | 19 | 
5 | CN1[C@@H]2CCC[C@H]1C[C@@H](NC(=O)c1cccc3oc(Cc4ccccc4)nc13)C2 [Example 9, Endo-N-(9-Methyl-9-azabicyclo[3.3.1]non-3-yl)-2-benzylbenzoxazole-4-carboxamide Hydrochloride] | 94.7 | 11 | 
6 | O=C(N[C@@H]1CN2CCC1CC2)c1cccc2oc(Cc3ccccc3)nc12 [Example 10, (S)—N-(1-Azabicyclo[2.2.2]oct-3-yl)-2-benzylbenzoxazole-4-carboxamide Hydrochloride] |  |  | 21
7 | CN1[C@@H]2CCC[C@H]1C[C@@H](NC(=O)c1cccc3oc(CC4CC4)nc13)C2 [Example 11, Endo-N-(9-Methyl-9-azabicyclo[3.3.1]non-3-yl)-2-(cyclopropylmethyl)benzoxazole-4-carboxamide Hydrochloride] | 98.6 | 8.6 | 
8 | O=C(N[C@@H]1CN2CCC1CC2)c1cccc2oc(CC3CC3)nc12 [Example 12, (S)—N-(1-Azabicyclo[2.2.2]oct-3-yl)-2-(cyclopropylmethyl)benzoxazole-4-carboxamide Hydrochloride] | 90.6 | 26 | 
9 | CN1[C@@H]2CCC[C@H]1C[C@@H](NC(=O)c1cccc3oc(C4CCC4)nc13)C2 [Example 17, Endo-N-(9-Methyl-9-azabicyclo[3.3.1]non-3-yl)-2-cyclobutylbenzoxazole-4-carboxamide Hydrochloride] | 108 | 7 | 
10 | O=C(N[C@@H]1CN2CCC1CC2)c1cccc2oc(C3CCC3)nc12 [Example 18, (S)—N-(1-Azabicyclo[2.2.2]oct-3-yl)-2-cyclobutylbenzoxazole-4-carboxamide Hydrochloride] | 108 | 7 | 
11 | O=C(N[C@@H]1CN2CCC1CC2)c1cc(F)cc2oc(C3CC3)nc12 [Example 19, (S)—N-(1-Azabicyclo[2.2.2]oct-3-yl)-6-fluoro-2-cyclopropylbenzoxazole-4-carboxamide Hydrochloride] |  |  | 44
12 | CN1[C@@H]2CCC[C@H]1C[C@@H](NC(=O)c1cc(F)cc3oc(C4CC4)nc13)C2 [Example 20, Endo-N-(9-Methyl-9-azabicyclo[3.3.1]non-3-yl)-6-fluoro-2-cyclopropylbenzoxazole-4-carboxamide Hydrochloride] |  |  | 5.4
13 | Cc1nc2c(C(=O)N[C@H]3C[C@H]4CCC[C@@H](C3)N4C)cccc2o1 [Example 34, Endo-N-(9-Methyl-9-azabicyclo[3.3.1]non-3-yl)-2-methylbenzoxazole-4-carboxamide] | 79 | 5.5 | 
14 | Cc1nc2c(C(=O)N[C@@H]3CN4CCC3CC4)cccc2o1 [Example 35, (S)—N-(1-Azabicyclo[2.2.2]oct-3-yl)-2-methylbenzoxazole-4-carboxamide] | 83 | 12 | 
